Test results reported in US9957271B2, “Substituted bicyclic aza-heterocycles and analogues as sirtuin modulators” (GlaxoSmithKline, LLC, priority 2012, dated 2018).

Tests used:
SIRT1 [1] = molecular target: T1, SIRT1 (Homo sapiens, UniProt Q96EB6); assay: Trp mass spectrometry assay of SIRT1 activity; assay type: biochemical; conditions: Trp peptide substrate; for Trp EC1.5: concentration giving 150% activation of SIRT1; for Emax: percent maximum fold activation, read-out: Trp % Fold Act
T1 sequence (Q96EB6 1-747): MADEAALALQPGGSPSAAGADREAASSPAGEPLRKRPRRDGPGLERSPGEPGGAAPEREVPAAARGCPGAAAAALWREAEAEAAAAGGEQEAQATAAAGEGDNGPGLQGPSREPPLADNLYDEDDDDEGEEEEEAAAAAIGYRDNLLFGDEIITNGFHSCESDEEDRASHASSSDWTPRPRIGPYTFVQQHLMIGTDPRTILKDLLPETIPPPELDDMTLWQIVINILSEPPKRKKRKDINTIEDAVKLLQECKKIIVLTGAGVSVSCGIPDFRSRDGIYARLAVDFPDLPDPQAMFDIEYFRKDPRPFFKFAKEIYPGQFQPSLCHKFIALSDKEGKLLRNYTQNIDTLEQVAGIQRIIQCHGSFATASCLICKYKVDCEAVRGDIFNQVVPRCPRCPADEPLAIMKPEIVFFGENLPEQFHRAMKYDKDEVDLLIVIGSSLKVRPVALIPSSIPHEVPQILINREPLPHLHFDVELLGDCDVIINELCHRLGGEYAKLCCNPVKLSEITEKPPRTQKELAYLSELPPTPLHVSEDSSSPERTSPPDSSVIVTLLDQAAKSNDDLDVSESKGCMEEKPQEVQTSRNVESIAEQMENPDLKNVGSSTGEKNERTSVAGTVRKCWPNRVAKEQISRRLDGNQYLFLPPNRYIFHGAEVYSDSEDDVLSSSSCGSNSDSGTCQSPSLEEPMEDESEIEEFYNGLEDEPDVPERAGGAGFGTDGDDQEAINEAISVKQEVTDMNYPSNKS
Method in brief: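 Activation readout: EC1.5 (concentration raising activity 50% over control) and percent maximum activation, from mass-spec quantitation of OAADPR or deacetylated Trp peptide. Reaction: 0.5 μM acetylated Trp peptide, 120 μM βNAD+, 10 nM bacterially expressed N-His SIRT1, pH 7.5 HEPES buffer with […], 25 min at 25° C.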

SIRT1 [2] = molecular target: T1, SIRT1; assay: TAMRA based mass spectrometry assay of SIRT1 activity; assay type: biochemical; conditions: TAMRA peptide substrate; for TAMRA EC1.5: concentration giving 150% activation of SIRT1; for Emax: percent maximum fold activation, read-out: TAMRA % Fold Act
Method in brief: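 Deacetylation of a biotinylated, TAMRA-tagged p53-based peptide (0.5 μM) by 10 nM His-tagged SIRT1 with 120 μM βNAD+, 25 °C for 25 min, pH 8 Tris-acetate buffer, across a compound concentration range. Quenched by formic acid and read by mass spec as product peptide or OAADPR; activity relative to DMSO reactions, nicotinamide defining maximal inhibition.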

Row | SMILES | Trp EC1.5 (SIRT1 [1]) | Emax (SIRT1 [1]) | TAMRA EC1.5 (SIRT1 [2]) | Emax (SIRT1 [2])
1 | O=C(Nc1cccc(N2CCOCC2)n1)c1cnc2ccc(N3CCC(F)(F)C3)nn12 [Compound 489] | A (EC1.5<1 μM) | ≥ 350% | B (EC1.5 1-25 μM) | < 350%
2 | Cc1cc(C)nc(NC(=O)c2cnc3ccc(N4CC[C@H](F)C4)nn23)c1 [Compound 490] | B (EC1.5 1-25 μM) | < 350% | B (EC1.5 1-25 μM) | ≥ 350%
3 | Cc1nc2ccc(-c3ccccc3OC(F)(F)F)nn2c1C(=O)Nc1ccccn1 [Compound 496] | A (EC1.5<1 μM) | < 350% | A (EC1.5<1 μM) | ≥ 350%
4 | Cc1nc2ccc(-c3ccccc3C(F)(F)F)nn2c1C(=O)Nc1ccncc1 [Compound 499] | A (EC1.5<1 μM) | ≥ 350% | A (EC1.5<1 μM) | ≥ 350%
5 | O=C(Nc1cccnn1)c1cnn2ccc(-c3ccccc3C(F)(F)F)nc12 [Compound 505] | B (EC1.5 1-25 μM) | < 350% | A (EC1.5<1 μM) | ≥ 350%
6 | Cc1cnc(NC(=O)c2cnn3ccc(-c4ccccc4C(F)(F)F)nc23)s1 [Compound 507] | B (EC1.5 1-25 μM) | < 350% | A (EC1.5<1 μM) | ≥ 350%
7 | Cc1csc(NC(=O)c2cnn3ccc(-c4ccccc4C(F)(F)F)nc23)n1 [Compound 508] | A (EC1.5<1 μM) | ≥ 350% | A (EC1.5<1 μM) | ≥ 350%
8 | CN(C)[C@@H]1CCN(c2ccc3ncc(C(=O)Nc4cccc(N5CCOCC5)n4)n3n2)C1 [Compound 511] | B (EC1.5 1-25 μM) | < 350% | B (EC1.5 1-25 μM) | < 350%
9 | Cc1cc(C)nc(NC(=O)c2cnc3ccc(N4CC[C@@H](N(C)C)C4)nn23)c1 [Compound 513] | C (EC1.5>25 μM) | < 350% | B (EC1.5 1-25 μM) | < 350%
10 | Cc1cc(-c2ccccc2C(F)(F)F)nn2c(C(=O)Nc3cccnn3)cnc12 [Compound 514] | A (EC1.5<1 μM) | ≥ 350% | A (EC1.5<1 μM) | ≥ 350%
11 | Cc1cc(C)nc(NC(=O)c2cnc3c(C)cc(-c4ccccc4C(F)(F)F)nn23)c1 [Compound 516] | B (EC1.5 1-25 μM) | < 350% | A (EC1.5<1 μM) | ≥ 350%
12 | O=C(Nc1ccncc1F)c1cnn2ccc(-c3ccccc3C(F)(F)F)nc12 [Compound 517] | B (EC1.5 1-25 μM) | < 350% | B (EC1.5 1-25 μM) | ≥ 350%
13 | O=C(Nc1ccc(F)cn1)c1cnn2ccc(-c3ccccc3C(F)(F)F)nc12 [Compound 518] | B (EC1.5 1-25 μM) | < 350% | A (EC1.5<1 μM) | ≥ 350%
14 | COc1cccc(C(=O)Nc2cnn3ccc(-c4ccccc4C(F)(F)F)nc23)n1 [Compound 521] | A (EC1.5<1 μM) | < 350% | A (EC1.5<1 μM) | ≥ 350%
15 | Cc1ccnc(C(=O)Nc2cnn3ccc(-c4ccccc4C(F)(F)F)nc23)c1 [Compound 523] | C (EC1.5>25 μM) | < 350% | A (EC1.5<1 μM) | ≥ 350%
16 | Cc1cc(C)nc(C(=O)Nc2cnn3ccc(-c4ccccc4C(F)(F)F)nc23)c1 [Compound 524] | C (EC1.5>25 μM) | < 350% | A (EC1.5<1 μM) | ≥ 350%
17 | Cc1nc(C(=O)Nc2cnn3ccc(-c4ccccc4C(F)(F)F)nc23)cs1 [Compound 527] | B (EC1.5 1-25 μM) | < 350% | A (EC1.5<1 μM) | ≥ 350%

Row | SMILES | Trp EC1.5 (SIRT1 [1]) | Emax (SIRT1 [1]) | TAMRA EC1.5 (SIRT1 [2]) | Emax (SIRT1 [2])
18 | O=C(Nc1ccccn1)c1cnn2ccc(-c3ccccc3OC(F)(F)F)nc12 [Compound 529] | A (EC1.5<1 μM) | < 350% | A (EC1.5<1 μM) | ≥ 350%
19 | O=C(Nc1cccnc1)c1cnn2ccc(-c3ccccc3OC(F)(F)F)nc12 [Compound 530] | A (EC1.5<1 μM) | ≥ 350% | A (EC1.5<1 μM) | ≥ 350%
20 | O=C(Nc1ccncn1)c1cnn2ccc(-c3ccccc3OC(F)(F)F)nc12 [Compound 533, N-(pyrimidin-4-yl)-5-(2-(trifluoromethoxy)phenyl)pyrazolo[1,5-a]pyrimidine-3-carboxamide] | B (EC1.5 1-25 μM) | < 350% | A (EC1.5<1 μM) | ≥ 350%
21 | O=C(Nc1cccc(CN2CCOCC2)n1)c1cnn2ccc(-c3ccccc3OC(F)(F)F)nc12 [Compound 535] | A (EC1.5<1 μM) | ≥ 350% | A (EC1.5<1 μM) | ≥ 350%
22 | COc1cccc(NC(=O)c2cnn3ccc(-c4ccccc4OC(F)(F)F)nc23)n1 [Compound 536] | A (EC1.5<1 μM) | < 350% | A (EC1.5<1 μM) | ≥ 350%
23 | Cc1cc(-c2ccccc2C(F)(F)F)nn2c(C(=O)Nc3ccncc3F)cnc12 [Compound 541] | B (EC1.5 1-25 μM) | ≥ 350% | A (EC1.5<1 μM) | ≥ 350%
24 | Cc1cc(-c2ccccc2C(F)(F)F)nn2c(C(=O)Nc3ccc(F)cn3)cnc12 [Compound 542] | B (EC1.5 1-25 μM) | < 350% | A (EC1.5<1 μM) | ≥ 350%
25 | Cc1nc2c(C)cc(-c3ccccc3OC(F)(F)F)nn2c1C(=O)Nc1cccc(N2CC3(COC3)C2)n1 [Compound 545] | A (EC1.5<1 μM) | ≥ 350% | A (EC1.5<1 μM) | ≥ 350%
26 | Cc1nn2ccc(-c3ccccc3C(F)(F)F)nc2c1C(=O)Nc1cccnc1 [Compound 549] | B (EC1.5 1-25 μM) | ≥ 350% | A (EC1.5<1 μM) | ≥ 350%
27 | COc1cccc(NC(=O)c2c(C)nn3ccc(-c4ccccc4C(F)(F)F)nc23)n1 [Compound 551, N-(6-methoxypyridin-2-yl)-2-methyl-5-(2-(trifluoromethyl)phenyl)pyrazolo[1,5-a]pyrimidine-3-carboxamide] | A (EC1.5<1 μM) | ≥ 350% | A (EC1.5<1 μM) | ≥ 350%
28 | Cc1nn2ccc(-c3ccccc3C(F)(F)F)nc2c1C(=O)Nc1cccc(N2CCOCC2)n1 [Compound 552] | A (EC1.5<1 μM) | ≥ 350% | A (EC1.5<1 μM) | ≥ 350%
29 | O=C(Nc1cncc(OC[C@H](O)CO)n1)c1cnc2ccc(-c3ccccc3C(F)(F)F)nn12 [Compound 555] | A (EC1.5<1 μM) | ≥ 350% | A (EC1.5<1 μM) | ≥ 350%
30 | Cc1cc(NC(=O)c2cnc3ccc(-c4ccccc4C(F)(F)F)nn23)cc(OC[C@@H](O)CO)n1 [Compound 558] | A (EC1.5<1 μM) | ≥ 350% | A (EC1.5<1 μM) | ≥ 350%
31 | O=C(Nc1ncccn1)c1cnn2ccc(-c3ccccc3OC(F)(F)F)nc12 [Compound 559] | B (EC1.5 1-25 μM) | ≥ 350% | B (EC1.5 1-25 μM) | < 350%
32 | Cc1nc2c(C)cc(-c3ccccc3C(F)(F)F)nn2c1C(=O)NCc1ccccn1 [Compound 561] | B (EC1.5 1-25 μM) | ≥ 350% | B (EC1.5 1-25 μM) | < 350%
33 | Cc1cccc(C(=O)Nc2cnc3ccc(N4CC[C@H](F)C4)nn23)n1 [Compound 565, (S)-N-(6-(3-fluoropyrrolidin-1-yl)imidazo[1,2-b]pyridazin-3-yl)-6-methylpicolinamide] | B (EC1.5 1-25 μM) | < 350% | B (EC1.5 1-25 μM) | ≥ 350%
34 | Cc1cc(C)nc(C(=O)Nc2cnc3ccc(N4CC[C@H](F)C4)nn23)c1 [Compound 566] | B (EC1.5 1-25 μM) | < 350% | B (EC1.5 1-25 μM) | ≥ 350%
